Experimental data as given in publication PMC7672115 (Scientific Reports, 2020).
Read-outs that look alike come from different tables or passages of the source.

How the values were obtained:
[1] = tested on: SARS-CoV-2; assay: microbe, parasite or virus in culture; type: cell-based; settings: for %Inhibition at 10 µM: purified compounds
[2] = tested on: SARS-CoV-2; assay: microbe, parasite or virus in culture; type: cell-based; settings: for IC50: read-out: IC50 (plaque reduction assay); for concentration with absolute inhibition of the infectious virion production: post-treatment approach, Vero E6, plaque assay
[3] = in vitro; type: cell-based
Protocol: (§1) Cells were seeded on 96-well plates at 5 × 10^4 cells/well and treated with various concentrations of the extracts or purified compounds for 48 h. Cell viability was evaluated by an MTT colorimetric assay. In brief, the medium was replaced with MTT [3-(4,5-dimethylthiazol-2-yl)-2,5-diphenyltetrazolium bromide] (Sigma-Aldrich, USA) and incubated for 4 h at 37 °C in a humidified incubator with 5% CO2. The formazan crystal was dissolved with DMSO (Merck, Germany) and measured at a wavelength of 570 nm by EnVision Multilabel Reader (PerkinElmer, USA). Data was normalized versus the solvent control, and then CC50 values were calculated using GraphPad Prism 7.

[4] = tested on: SARS-CoV-2; assay: Plaque reduction assay of viral output, pre-entry treatment, Vero E6 cells; type: cell-based
[5] = tested on: SARS-CoV-2; assay: microbe, parasite or virus in culture; type: cell-based; settings: Vero E6
[6] = tested on: SARS-CoV-2; assay: microbe, parasite or virus in culture; type: cell-based
[7] = tested on: SARS-CoV-2; assay: microbe, parasite or virus in culture; type: cell-based; remark: listed apart in the source
[8] = tested on: HepG2, imHC, HK-2, SH-SY5Y, Caco-2; assay: Cell viability assay (MTT) in various human cell types; type: cell-based; settings: 0 - 100 µM, 48 h
[9] = tested on: SARS-CoV-2; settings: for SI (CC50/IC50): post-infection, Vero E6
[10] = tested on: SARS-CoV-2; settings: pre-entry, Vero E6
[11] = tested on: SARS-CoV-2; assay: microbe, parasite or virus in culture; settings: Severe acute respiratory syndrome coronavirus 2, Vero C1008, 48 h, read-out: IC50 (virus inhibition, high-content imaging/IFA)
[12] = tested on: SARS-CoV-2; assay: microbe, parasite or virus in culture; settings: Severe acute respiratory syndrome coronavirus 2, Vero C1008, read-out: IC50 (virus inhibition, high-content imaging)
[13] = Cell viability assay (MTT) in Calu-3 cells; settings: human
[14] = tested on: Vero E6 cells; assay: in vitro; type: cell-based; settings: Vero E6, post-infection treatment setting, 48 h
Protocol: as §1

[15] = in vitro; settings: human
[16] = Severe acute respiratory syndrome coronavirus 2, Vero C1008, purified compounds, single dose 10 µM, Vero E6, SARS-CoV-2 25TCID50, read-out: %Inhibition at 10 µM
[17] = Severe acute respiratory syndrome coronavirus 2, Vero C1008, post-infection treatment, Vero E6, 48 h
[18] = Vero E6, post-infection treatment setting, 48 h, read-out: CC50
[19] = Vero E6, pre-entry treatment setting, read-out: CC50
[20] = single dose 10 µM, Vero E6, SARS-CoV-2 25TCID50
[21] = Severe acute respiratory syndrome coronavirus 2, Vero C1008, 48 h

For `COc1cc(O)c(C(=O)[C@@H]2[C@H](CC=C(C)C)C(C)=CC[C@H]2c2ccccc2)c(O)c1` [Panduratin A], the inhibition at 10 µM [1, 16] was 99.9%, the “%Inhibition at 10 µM” value ([1]; single dose 10 µM, Vero E6, SARS-CoV-2 25TCID50, listed as ECDD-NPA) was 99.97% and the IC50 [2, 17] was 0.078 µM. For the same molecule, the “concentration with absolute inhibition of the infectious virion production” value [2] was 5 µM, the CC50 at 48 h [3, 18] was 14.7 µM and the CC50 at 48 h [3, 19] was 43.5 µM. For the same molecule, the IC50 ([4]; Severe acute respiratory syndrome coronavirus 2, Vero C1008, Vero E6) was 7.62 µM, the “dose with absolute suppression of the infectious virion production” value ([4]; Vero E6, plaque assay) was 50 µM and the “antiviral effect (in words)” value ([5]; cells treated with extract/compound before viral adsorption) was “did not exerted a dramatic antiviral effect”. The IC50 ([6]; Severe acute respiratory syndrome coronavirus 2, post-treatment, Calu-3, read-out: IC50 (virus inhibition, high-content imaging/IFA)) was 2.04 µM, the IC50 ([7]; Severe acute respiratory syndrome coronavirus 2, post-treatment, Calu-3, read-out: IC50 (plaque assay)) was 0.53 µM and the “cytotoxicity at the therapeutic window (in words)” value [8] was “no or minimal cytotoxicity”. The “SI (CC50/IC50)” value [9] was 18.16, the “SI (CC50/IC50)” value [10] was 8.20 and the IC50 [11] was 0.81 µM. For the same molecule, the IC50 [12] was 5.3 µM and the CC50 at 48 h [13] was 43.9 µM.

With `CCCCCCCCC[C@H](O)CC(=O)CCc1ccc(O)c(OC)c1` [ECDD-DPM-N96, 10-Gingerol] the “%Inhibition at 10 µM” value [1, 20] was 23.51%.

In the case of `C=C1CC[C@@H]2[C@](C)(CO)[C@H](O)CC[C@@]2(C)[C@@H]1C/C=C1/C(=O)OC[C@H]1O` [Andrographolide], the inhibition at 10 µM [1, 16] is reported as 99.9%, the “%Inhibition at 10 µM” value ([1]; single dose 10 µM, Vero E6, SARS-CoV-2 25TCID50, listed as ECDD-NAD) is reported as 99.97% and the IC50 [2, 17] is reported as 0.28 µM. For the same molecule, the “concentration with absolute inhibition of the infectious virion production” value [2] was 12.5 µM, the CC50 at 48 h ([3]; African green monkey, CC50) was 27.8 µM and the IC50 [11] was 6.58 µM.

For `CCCCC/C=C/C(=O)CCc1ccc(O)c(OC)c1` [ECDD-DPM-N97, 6-Shogaol], the “%Inhibition at 10 µM” value [1, 20] was 12.17%.

Ivermectin [reference compound] showed a CC50 [14] of 31.7 µM and an IC50 ([9]; read-out: IC50 (virus inhibition, high-content imaging/IFA), post-infection treatment, Vero E6, 48 h) of 12.7 µM.

For `COc1c(O)cc2oc3cc(O)c(CC=C(C)C)c(O)c3c(=O)c2c1CC=C(C)C` [ECDD-NAM, alpha-mangostin], the “%Inhibition at 10 µM” value [1, 20] was 9.08%.

In the case of `CCCCCCC[C@H](O)CC(=O)CCc1ccc(O)c(OC)c1` [ECDD-DPM-N95, 8-Gingerol], the “%Inhibition at 10 µM” value [1, 20] is reported as 17.59%.

In the case of `CCCCCCCCC/C=C/C(=O)CCc1ccc(O)c(OC)c1` [MUC1775, 10-Shogaol], the “%Inhibition at 10 µM” value [1, 20] is reported as 5.7%.

With `CCCCC[C@H](O)CC(=O)CCc1ccc(O)c(OC)c1` [6-Gingerol] the inhibition at 10 µM ([1]; Severe acute respiratory syndrome coronavirus 2, Vero C1008, read-out: %Inhibition at 10 µM) was 7.78%, the “inhibitory activity against SARS-CoV-2 infection (in words)” value ([1]; extract at 10 µg/mL, compound at 10 µM) was “mild effect” and the IC50 [2, 21] was 1.38 µM. For the same molecule, the CC50 at 48 h [3, 18] was > 100 µM and the IC50 [11] was > 100 µM.

With `CCN(CCO)CCCC(C)Nc1ccnc2cc(Cl)ccc12` (stereo not shown) [Hydroxychloroquine, reference compound] the IC50 [2, 17] was 0.282 µM, the CC50 at 48 h ([3]; African green monkey, Vero E6, post-infection treatment setting, 48 h, read-out: CC50) was > 100 µM and the CC50 at 48 h ([3]; African green monkey, Vero E6, pre-infection phase setting, read-out: CC50) was > 100 µM. The CC50 at 48 h [3, 19] was > 100 µM, the IC50 ([5]; Severe acute respiratory syndrome coronavirus 2, Vero C1008, pre-infection phase, read-out: IC50 (virus inhibition, high-content imaging)) was 20.6 µM and the “SI (CC50/IC50)” value [9] was > 19.68. For the same molecule, the “SI (CC50/IC50)” value [10] was > 12.39, the IC50 [11] was 5.08 µM and the IC50 [12] was 8.07 µM.

In the case of `CCC(CC)COC(=O)[C@H](C)N[P@](=O)(OC[C@H]1O[C@@](C#N)(c2ccc3c(N)ncnn23)[C@H](O)[C@@H]1O)Oc1ccccc1` [Remdesivir, reference compound], the IC50 [2, 21] is reported as 2.65 µM, the IC50 ([6]; Severe acute respiratory syndrome coronavirus 2, Calu-3, read-out: IC50 (virus inhibition, high-content imaging/IFA)) is reported as 0.043 µM and the IC50 ([7]; Severe acute respiratory syndrome coronavirus 2, Calu-3, read-out: IC50 (plaque assay)) is reported as 0.086 µM. For the same molecule, the CC50 [15] was 16 µM and the IC50 [11] was 2.71 µM.
